For the assay, the target named is T1, MsFadD32 (full-length FadD32 from M. smegmatis) (Mycolicibacterium smegmatis, UniProt A0R618).
T1 construct: full-length (N-terminal domain 1-483, C-terminal domain 484-630), expressed in E. coli BL21(DE3) as SUMO (SMT3) fusion; crystal of the SUMO fusion
T1 sequence (A0R618 1-630): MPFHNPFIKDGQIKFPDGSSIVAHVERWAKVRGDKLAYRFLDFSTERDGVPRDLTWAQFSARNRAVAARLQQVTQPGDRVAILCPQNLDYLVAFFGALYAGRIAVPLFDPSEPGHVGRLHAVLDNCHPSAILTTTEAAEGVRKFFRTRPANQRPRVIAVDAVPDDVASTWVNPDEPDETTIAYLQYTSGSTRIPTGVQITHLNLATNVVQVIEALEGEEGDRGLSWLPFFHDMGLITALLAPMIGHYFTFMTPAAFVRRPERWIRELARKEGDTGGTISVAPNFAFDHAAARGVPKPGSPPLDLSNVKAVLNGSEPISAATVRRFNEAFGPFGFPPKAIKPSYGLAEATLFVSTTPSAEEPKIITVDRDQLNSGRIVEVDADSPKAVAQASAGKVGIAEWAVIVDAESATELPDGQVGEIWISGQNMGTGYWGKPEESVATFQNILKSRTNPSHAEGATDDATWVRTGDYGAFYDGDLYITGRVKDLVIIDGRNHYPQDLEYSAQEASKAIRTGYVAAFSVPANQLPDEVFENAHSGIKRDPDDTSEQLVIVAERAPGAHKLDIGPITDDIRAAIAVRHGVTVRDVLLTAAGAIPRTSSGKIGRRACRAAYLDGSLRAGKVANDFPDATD
The assay can be described thus: isothermal titration calorimetry; crystal structure of the complex at […] Å. Format: binding.

Consider `Nc1ncnc2c1ncn2[C@@H]1O[C@H](COP(=O)(O)OP(=O)(O)OP(=O)(O)O)[C@@H](O)[C@H]1O` [ATP], for which the Kd – broadly, the concentration at which binding is half-saturated – was ~36 µM.
